According to PMC11846984 (Nature Communications, 2025):

Target: T1, GPX4 (Mus musculus, UniProt O70325)
T1 sequence (O70325 28-197): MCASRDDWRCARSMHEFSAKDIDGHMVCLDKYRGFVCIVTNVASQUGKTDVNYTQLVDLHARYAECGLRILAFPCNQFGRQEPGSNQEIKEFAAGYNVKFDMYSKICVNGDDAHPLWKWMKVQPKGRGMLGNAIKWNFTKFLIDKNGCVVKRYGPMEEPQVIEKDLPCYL
Experiment: cellular thermal shift assay
Format: cell-based

SMILES: COc1ccc(N(C(=O)CCl)C(C(=O)NCCc2ccccc2)c2cccs2)cc1Cl (stereo not shown) [ML162]
- cellular thermal shift assay (CETSA): Both the GPX4-targeting ligand ML162 and ML-NR were found to enhance the thermal stability of the GPX4 protein
